Laboratory results: PMC3638593, “1,4-dihydroxy-2-naphthoic Acid Induces Apoptosis in Human Keratinocyte: Potential Application for Psoriasis Treatment” (Evidence-based Complementary and Alternative Medicine : eCAM, 2013)
Where “and” joins values, the source holds several entries; their conditions need not be identical. Equal values may be shown once. Read-outs that look alike come from different tables or passages of the source. * marks the point of attachment. Cbz = O=C(OCc1ccccc1)*; CH2F = FC*

Columns and labels:
Format in all cases: cell-based, human
[1] = tested on: IL-1α release from NCTC 2544 cells; test: IL-1α release assay (ELISA)
Method: NCTC 2544 cells were seeded and treated with various concentrations of DHNA or dithranol for 72 h. After incubation, the microplate was centrifuged and conditioned medium was collected to determine the extracellular IL-1α (IL-1α release) using an IL-1α ELISA kit (Diaclone Research, France). All other steps were then according to the manufacturer's protocol. Results were expressed in pg/mL.

[2] = tested on: HaCaT cells; test: Proliferation assay (sulphorhodamine B) on HaCaT; conditions: Homo sapiens, read-out: IC50 on growth
Source text: (§1) The spontaneously immortalized human epidermal keratinocyte HaCaT cells were purchased from China Centre for Type Culture Collection, Wuhan, China. The human foreskin fibroblast Hs-68 cells were purchased from the American Type Culture Collection (Manassas, VA, USA). The human undifferentiated keratinocyte NCTC 2544 cells were provided by Interlab Cell Line Collection (Genoa, Italy) and the immortalized human epidermal melanocyte PIG1 cells were a gift from Dr Caroline Le Poole (Loyola University Chicago, Maywood, IL, USA). HaCaT and Hs-68 cells were maintained in DMEM, NCTC 2544 in RPMI 1640 and PIG1 cells in Medium 254 with Human Melanocyte Growth Supplement-2, respectively. All cells were cultured in complete medium containing 10% FBS, 100 μg/mL of streptomycin, and 100 U/mL of penicillin (Gibco Laboratories) at 37°C in a humidified atmosphere of 5% CO2. Cell culture experiments were carried out at 60–80% confluent.
(§2) The ethyl acetate extract (EA) of Rubia cordifolia L. was isolated as described. 1,4-dihydroxy-2-naphthoic acid (98%), dithranol (≥90%), and EA were dissolved in DMSO as stock. All cells were seeded and treated with various concentrations of DHNA, dithranol or EA. After treatment, cells were fixed with cold 50% trichloroacetic acid and incubated 1 h at 4°C. Cell was then washed with deionized water, air-dried, and stained with 0.4% (w/v) sulphorhodamine B for 30 min at room temperature. Unincorporated dye was removed with 1% acetic acid wash and the cell was again air-dried. Incorporated dye was then solubilized in 10 mM Tris base and absorbance was measured at 565/690 nm using a Sunrise microplate spectrophotometer (Tecan, Switzerland). IC50 were determined using GraphPad Prism 5.0 (GraphPad Software, San Diego, CA, USA).

[3] = tested on: NCTC 2544 cells; test: Proliferation assay (sulphorhodamine B) on NCTC 2544; conditions: Homo sapiens, read-out: IC50 on growth
Source text: as §1, §2

[4] = tested on: HaCaT cells; test: Annexin V/propidium iodide staining, flow cytometry; conditions: 40 μM pretreatment 1 h, then DHNA 24 h
Method: After DHNA treatment, HaCaT cells were resuspended in annexin V binding buffer (10 mM HEPES, 140 mM NaCl, and 2.5 mM CaCl2, pH 7.4) and then incubated with FITC-conjugated annexin V (Biosource International, Inc., USA), and 0.5 μg/mL propidium iodide (PI) for 15 min at room temperature in the dark. Cells were analyzed on a FACSCanto flow cytometer (BD Biosciences, San Jose, CA, USA) immediately and then analyzed using WinMDI 2.9 (developed by Dr. J. Trotter, Scripps Institute, La Jolla, CA, USA). The total number of early (FITC+/PI−) and late (FITC+/PI+) apoptotic cells was assessed. In another experiment, HaCaT cells were preincubated with 40 μM pan-caspase inhibitor Z-VAD-FMK (BD Pharmingen, San Diego, CA, USA) for 1 h before exposure to DHNA.

O=C1c2c(O)cccc2Cc2cccc(O)c21 [Dithranol, dithranol, reference compound] was tested, and the “IL-1α release at concentrations below IC50 on NCTC 2544” value ([1]; 2 to 3 μM or 0.45 to 0.68 μg/mL, 72 h) was “readily induced the release of this cytokine”, the “IL-1α release versus vehicle control” value ([1]; 2 to 8 μM (0.45 to 1.81 μg/mL), 72 h) was “induced significant release of this cytokine at all concentrations tested” and the “concentration at which IL-1α release is significantly induced” value ([1]; NCTC 2544, 72 h, versus vehicle control) was 2 μM and 0.45 μg/mL. The IC50 ([2]; incubation 48 h) was 24.8 µM and 5.6 µg/mL, the IC50 ([2]; incubation 72 h) was 9.39 µM and 2.12 µg/mL and the IC50 ([3]; NCTC 2544, incubation 48 h) was 6.21 µM and 1.41 µg/mL. For the same molecule, the IC50 ([3]; NCTC 2544, incubation 72 h) was 3.81 µM and 0.86 µg/mL.
For “Cbz-Val-Ala-Asp-CH2F [reference compound]”, the “effect of pan-caspase inhibitor on DHNA-induced apoptosis” value [4] was “partially blocked”.
